{"source": "paper PMC8044163", "about": "“Vitamin D and lumisterol derivatives can act on liver X receptors (LXRs)” (Scientific Reports, 2021)", "key": {"VDR": {"target": "T1, VDR (Homo sapiens, UniProt P11473)", "T1 construct": "endogenous in cells; host or cells: HaCaT keratinocytes", "T1 sequence (P11473 1-427)": "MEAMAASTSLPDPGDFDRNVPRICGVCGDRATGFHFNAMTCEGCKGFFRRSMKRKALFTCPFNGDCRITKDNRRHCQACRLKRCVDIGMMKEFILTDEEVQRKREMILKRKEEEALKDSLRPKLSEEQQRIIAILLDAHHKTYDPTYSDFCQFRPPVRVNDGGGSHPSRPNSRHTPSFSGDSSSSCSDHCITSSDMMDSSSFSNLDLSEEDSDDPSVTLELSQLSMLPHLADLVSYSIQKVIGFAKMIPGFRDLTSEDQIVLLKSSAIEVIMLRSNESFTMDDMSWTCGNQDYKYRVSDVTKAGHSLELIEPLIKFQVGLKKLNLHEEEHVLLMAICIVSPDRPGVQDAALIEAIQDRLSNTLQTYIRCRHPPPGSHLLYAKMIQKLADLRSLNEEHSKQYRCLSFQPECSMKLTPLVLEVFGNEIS", "assay": "Translocation of VDR to the nucleus, imaging flow cytometry in HaCaT", "format": "cell-based", "conditions": "10^–7 M, 12 h"}, "ABCA1": {"tested_on": "ABCA1", "assay": "qPCR of ABCA1 in HaCaT keratinocytes", "format": "cell-based, human", "conditions": "10^–7 M", "experimental": "HaCaT keratinocytes were cultured as described previously. For RNA isolation the cells were maintained in TPP tissue culture petri dishes (Ø60 mm, 22.1 cm^2) in DMEM containing 10% cFBC to reach semi-confluence and then exposed to 10^–7 M compounds or a corresponding concentration of ethanol solvent.\n(§1) RNA isolated from either fibroblasts, HaCaT cells or brain was submitted for cDNA synthesis (High Capacity cDNA Reverse Transcription Kit with RNase Inhibitor, Applied Biosystems) following the manufacturers’ protocols. RT-PCR was carried out using Cyber green, in triplicates; as previously described. Approximately, 750 ng of cDNA was used for PCR reactions. GAPDH and CIC-B were used as internal controls. Primer sequences are listed in Supplementary Table 27. Data were analyzed using GraphPad Prism statistical software one way ANOVA or t-test, where appropriate; *p < 0.05; **p < 0.01; ***p < 0.001."}, "brains of SKH-1 mice": {"tested_on": "brains of SKH-1 mice", "assay": "LXR-dependent gene expression in brain of mice after subcutaneous injection", "format": "in vivo, mouse", "conditions": "6 h, SKH-1-M mice", "experimental": "Adult hairless mice SKH-1 (Male, 16 weeks old) and Ptch^+/−/SKH-1 (Male, 18 weeks old) were injected subcutaneously with 20 µg and 10 µg/kg of 20(OH)D3, respectively, dissolved in ethanol, further diluted in propylene glycol (PG) and saline (0.9%) sequentially (1:19:80, v/v/v). Controls were injected with the vehicle without the drug. )After 6 h the animals were killed by halothane followed by cervical dislocation and brains were collected for RNA and protein extraction protocols. The procedures followed the guidelines and approvals of the Institute Animal Care and Use Committee of the University of Alabama at Birmingham (IACUC).\nas §1"}, "LXRα": {"target": "T2, LXRα (Homo sapiens, UniProt Q13133)", "T2 construct": "endogenous in cells; host or cells: HaCaT keratinocytes", "T2 sequence (Q13133 1-447)": "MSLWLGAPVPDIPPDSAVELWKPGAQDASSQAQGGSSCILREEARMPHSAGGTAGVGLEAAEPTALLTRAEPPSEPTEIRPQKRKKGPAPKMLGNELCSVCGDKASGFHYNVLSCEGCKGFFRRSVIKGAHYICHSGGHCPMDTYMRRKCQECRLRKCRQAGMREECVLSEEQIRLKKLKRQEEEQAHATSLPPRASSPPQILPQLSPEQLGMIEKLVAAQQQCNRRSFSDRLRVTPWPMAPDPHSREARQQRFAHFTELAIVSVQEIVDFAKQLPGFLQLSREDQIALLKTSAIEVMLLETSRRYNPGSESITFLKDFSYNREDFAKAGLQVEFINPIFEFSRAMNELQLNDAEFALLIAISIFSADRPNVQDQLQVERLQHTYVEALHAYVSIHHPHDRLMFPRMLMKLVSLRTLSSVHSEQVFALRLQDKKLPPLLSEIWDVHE", "assay": "Ligand induced translocation of LXRα to the nucleus, immunofluorescence in HaCaT", "format": "cell-based", "conditions": "10^−7 M, 24 h", "experimental": "HaCaT cells were plated in DMEM plus 5% cFBS either on a sterile glass cover slip placed in a well of a 6-well plates for immunofluorescence (IF) assays or TPP Petri dishes for image-stream flow cytometry, and treated with 10^–7 M D3- or L3-hydroxyderivatives or 0.1% ethanol (vehicle) as a negative control was added to each well, and the cells were incubated for 12 or 24 h at 37 °C with 5% CO2. For IF the cells were fixed in 4% paraformaldehyde for 15 min, incubated in 0.5% Triton X-100 in phosphate-buffered saline (PBS) for 5 min, and washed 3 times in PBS. After blocking with 2% bovine serum albumin (BSA) in PBS for 1 h at room temperature, the cells were treated with an anti-LXRα antibody (Novus Biologicals, LLC, Centennial, CO) at 1:200 in PBS supplemented with 2% BSA overnight in 4 °C. After washing the slides were incubated with a mouse anti-rabbit IgG-FITC (Santa Cruz Biotechnology, Inc, Dallas, TX) at 1:200 dilution for 1.5 h at 37 °C. After washing the slides were mounted using propidium iodide (PI) (Vector Labs, Burlingame, California) as a nuclear counterstain. The slides were examined using a KEYENCE America BZ-X710 Fluorescence Microscope (Itasca, IL). The images were subsequently analyzed using the JACoP plugin for colocalization analysis with ImageJ[74]. Five separate high-power field (40×) images were converted to grayscale and analyzed for each condition. Manders’ coefficient (M1), calculated using a preset threshold, was used to quantify the degree of colocalization between PI and LXRα with 0 representing no colocalization, and 1 representing perfect colocalization."}, "[1]": {"tested_on": "LXRα/β binding to the LXRE within the ABCA1 promoter region", "assay": "ChIP assay in HaCaT keratinocytes", "format": "cell-based, human", "conditions": "10^–7 M, 24 h", "description": "We followed protocols described in Ref.[40]. […] The cells were harvested and in vivo crosslinking, lysis and sonication of the chromatin, as well as following steps of ChIP assay, were done using Magna ChiP G Kit 0002 (Millipore). […] The purified DNA fragments were PCR amplified with the following sequence of PCR primers for human ABCA1 LXR-responsive element (LXRE): Forward: [NT], Reverse: [NT] and for human GAPDH as a reference gene: Forward: [NT], Reverse: [NT] (Eurofins Genomics). The PCR reaction was performed using Dream Taq Green PCR Master Mix (2×) (Thermo Scientific, cat. no. K1081) according to the following procedure: initial denaturation: 95 °C for 3 min; denaturation: 95 °C for 30 s (× 35 cycles); annealing: 58 °C for 30 s (× 35 cycles in the same cycles with denaturation); extension: 72 °C for 1 min; final extension: 72 °C for 15 min. The detection of amplification product was done by standard agarose gel electrophoresis with EtBr using Invitrogen iBright CL1000 Imaging System, with # SM Gene Ruler 1 kb Plus DNA Ladder (Thermo Scientific) as a marker."}}, "data": [{"smiles": "C=C1CC[C@H](O)C/C1=C/C=C1\\CCC[C@@]2(C)[C@H]1CC[C@@H]2[C@@](C)(O)CCCC(C)C", "note": "[20(OH)D3]", "values": [{"measurement": "translocation of VDR from the cytoplasm to the nucleus", "setting": "VDR", "value": "increased translocation"}, {"measurement": "ABCA1 RNA expression (qPCR)", "setting": "ABCA1", "value": "stimulation"}, {"measurement": "LXR-dependent gene expression in brain", "setting": "brains of SKH-1 mice; 10 µg/kg", "value": "stimulated expression of Abca1, Abcg1, Abcg5, ApoE, Fas and Cyp7a1"}, {"measurement": "LXR-dependent gene expression in brain", "setting": "brains of SKH-1 mice; 20 µg/kg", "value": "stimulated expression of Lpl, Abca1, ApoE and Cyp7a1"}, {"measurement": "translocation of LXRα to the nucleus (immunofluorescence, Manders' coefficient)", "setting": "LXRα", "value": "induced translocation"}]}, {"smiles": "C=C1/C(=C\\C=C2/CCC[C@]3(C)[C@@H]([C@H](C)CCCC(C)(C)O)CC[C@@H]23)C[C@@H](O)C[C@@H]1O", "note": "[1,25(OH)2D3, reference compound]", "values": [{"measurement": "ABCA1 RNA expression (qPCR)", "setting": "ABCA1", "value": "stimulation"}, {"measurement": "LXRα/β binding to the LXRE within the ABCA1 promoter region (ChIP)", "setting": "[1]", "value": "significant stimulation"}, {"measurement": "translocation of LXRα to the nucleus (immunofluorescence, Manders' coefficient)", "setting": "LXRα", "value": "induced translocation"}]}, {"smiles": "C=C1C(=CC=C2CCCC3(C)C2CCC3C(C)(O)CC(O)CC(C)C)CC(O)CC1O", "note": "(stereo not drawn) [1,20,23(OH)3D3]", "values": [{"measurement": "translocation of VDR from the cytoplasm to the nucleus", "setting": "VDR", "value": "increased translocation"}]}]}
